{
  "source": "paper PMC1865377",
  "about": "“A novel bifunctional N-acetylglutamate synthase-kinase from Xanthomonas campestris that is closely related to mammalian N-acetylglutamate synthase” (BMC Biochemistry, 2007)",
  "key": {"H6XcNAGS-K [1]": {"target": "T1, H6XcNAGS-K (Xanthomonas campestris, UniProt A0A0H2X8L7)", "T1 construct": "gene XC_1873; full length, E. coli BL21(DE3), pET15b, N-terminal polyhistidine tag and thrombin site kept", "T1 sequence (A0A0H2X8L7 1-447)": "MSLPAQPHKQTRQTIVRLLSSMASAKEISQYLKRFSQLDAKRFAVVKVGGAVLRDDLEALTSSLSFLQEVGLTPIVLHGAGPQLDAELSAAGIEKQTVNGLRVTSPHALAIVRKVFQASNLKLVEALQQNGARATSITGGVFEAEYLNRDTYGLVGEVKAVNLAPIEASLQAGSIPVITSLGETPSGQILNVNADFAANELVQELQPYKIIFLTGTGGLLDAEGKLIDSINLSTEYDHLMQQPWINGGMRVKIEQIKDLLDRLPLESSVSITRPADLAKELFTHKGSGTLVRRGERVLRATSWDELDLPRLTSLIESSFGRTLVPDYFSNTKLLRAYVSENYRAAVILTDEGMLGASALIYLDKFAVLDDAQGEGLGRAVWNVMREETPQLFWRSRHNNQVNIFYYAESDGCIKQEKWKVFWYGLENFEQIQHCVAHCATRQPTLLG", "test": "synthase activity, LC-MS of N-acetylglutamate", "assay_type": "biochemical", "conditions": "50 mM L-glutamate, 2 mM AcCoA, pH 9.0, 30 °C"}, "H6XcNAGS-K [2]": {"target": "T1, H6XcNAGS-K", "test": "kinase activity, colorimetric hydroxamate assay", "assay_type": "biochemical", "conditions": "100 mM N-acetylglutamate, 20 mM ATP, 40 mM MgCl2, 400 mM hydroxylamine, pH 6.0, 30 °C"}},
  "data": [
    {"compound": "N=C(N)NCCC[C@H](N)C(=O)O", "note": "[L-arginine]", "values": [
      {"measurement": "half-inhibition", "setting": "H6XcNAGS-K [1]", "value": "presence of an affinity tag did not affect the inhibition of the synthase activity of XcNAGS-K"},
      {"measurement": "half-inhibition", "setting": "H6XcNAGS-K [2]", "value": "half-inhibition of the kinase activities of XcNAGS-K with and without polyhistidine differed two-fold"}
    ]}
  ]
}
